Experiment [1] has as its target T1, Protein skinhead-1 (Caenorhabditis elegans, UniProt P34707).
T1 sequence (P34707 whole entry): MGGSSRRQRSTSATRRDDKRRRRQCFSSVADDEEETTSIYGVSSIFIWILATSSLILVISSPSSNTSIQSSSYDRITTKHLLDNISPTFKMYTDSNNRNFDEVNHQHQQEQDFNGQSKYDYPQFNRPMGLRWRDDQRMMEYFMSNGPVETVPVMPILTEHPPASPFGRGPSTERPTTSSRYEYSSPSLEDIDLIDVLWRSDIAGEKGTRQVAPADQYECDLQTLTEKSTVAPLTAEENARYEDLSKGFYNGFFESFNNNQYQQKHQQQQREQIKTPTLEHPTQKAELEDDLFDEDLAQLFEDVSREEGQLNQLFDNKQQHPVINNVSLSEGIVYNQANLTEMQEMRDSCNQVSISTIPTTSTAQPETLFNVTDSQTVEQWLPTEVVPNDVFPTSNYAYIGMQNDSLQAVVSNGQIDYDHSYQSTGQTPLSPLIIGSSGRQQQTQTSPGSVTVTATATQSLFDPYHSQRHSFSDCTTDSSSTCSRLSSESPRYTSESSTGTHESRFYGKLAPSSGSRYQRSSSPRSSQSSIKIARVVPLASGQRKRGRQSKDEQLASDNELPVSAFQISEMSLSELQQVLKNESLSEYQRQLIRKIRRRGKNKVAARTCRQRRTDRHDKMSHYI
The format is functional.

Experiment [2] concerns INS1. Nature of the experiment: INS-1E survival protection against cytokine death – cell-based, luminescence, retest, dose response (AID 449756).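 Note: cell death triggered by IL-1 beta plus TNF-alpha plus IFN-gamma mixture; protective hits raise ATP signal compared with cytokine alone wells.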 The class given is functional. The conditions noted are these: Rattus norvegicus.
Experiment [3] in a line: reduction of Shn3 3'UTR-driven luciferase in osteoblasts – cell-based, Clone20 osteoblasts, firefly luciferase, cherry-picked, dose response (AID 624132).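 Note: firefly luciferase luminescence from reporter carrying the Shn3 3'UTR in osteoblasts.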 The format is functional.
Experiment [4] in a line: loss of viability in HepG2 cells – cell-based, CellTiter-Glo, cherry-picked, cytotoxicity control for Shn3 inhibitor project, dose response (AID 624134). The class given is functional.
For experiment [5], the target named is T2, Corticotropin-releasing factor receptor 2/Corticotropin-releasing factor-binding protein (Homo sapiens, UniProt P24387+Q13324).
T2 sequence (Q13324 whole entry): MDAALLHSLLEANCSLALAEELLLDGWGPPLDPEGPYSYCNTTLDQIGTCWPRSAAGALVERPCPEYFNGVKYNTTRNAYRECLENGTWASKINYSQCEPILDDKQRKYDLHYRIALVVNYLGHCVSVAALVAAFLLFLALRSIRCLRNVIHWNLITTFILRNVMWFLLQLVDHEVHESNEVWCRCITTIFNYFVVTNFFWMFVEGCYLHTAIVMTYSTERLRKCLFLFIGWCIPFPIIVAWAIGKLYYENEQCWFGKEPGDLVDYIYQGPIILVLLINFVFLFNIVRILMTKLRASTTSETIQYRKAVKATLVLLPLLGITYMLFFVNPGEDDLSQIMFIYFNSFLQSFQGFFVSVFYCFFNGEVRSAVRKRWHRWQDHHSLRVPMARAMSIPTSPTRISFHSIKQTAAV
T2 sequence (P24387 whole entry): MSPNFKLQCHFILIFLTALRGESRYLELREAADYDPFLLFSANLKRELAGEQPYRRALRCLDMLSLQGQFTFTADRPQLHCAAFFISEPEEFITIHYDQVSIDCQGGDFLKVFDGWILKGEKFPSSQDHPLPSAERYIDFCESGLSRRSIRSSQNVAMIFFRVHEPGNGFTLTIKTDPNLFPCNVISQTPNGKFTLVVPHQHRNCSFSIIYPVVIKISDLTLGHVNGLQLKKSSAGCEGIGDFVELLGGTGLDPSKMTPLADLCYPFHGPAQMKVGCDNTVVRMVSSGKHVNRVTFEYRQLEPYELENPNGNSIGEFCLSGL
Nature of the experiment: activators of CRF receptor 2 with binding protein – uHTS hits, confirmation (AID 602473). The class given is functional. The conditions noted are these: read-out: EC50_Mean.

In experiment [6] the target is T2, Corticotropin-releasing factor receptor 2/Corticotropin-releasing factor-binding protein. The experiment in a line: Dose Response confirmation of uHTS hits for small molecule antagonists of the CRF-binding protein and CRF-R2 receptor complex. The class given is functional. The conditions noted are these: read-out: IC50_Mean.
Experiment [7] is described as follows: microbe, parasite or virus in culture. The format is functional. The note with it: Mycobacterium tuberculosis.
Experiment [8] in a line: Luminescence Cell-Based Dose Confirmation HTS to Identify Inhibitors of Platelet Dense Granule Release. [Related pubchem assays: 1663 (Primary HTS), 1678 (Summary of Project)]. The format is functional.
Experiment [9] addresses Luciferin 4-monooxygenase (Photinus pyralis, UniProt P08659). Nature of the experiment: inhibition of purified Photinus pyralis luciferase – biochemical, luminescence, dose response (AID 1891).
The subject of experiment [10] is H4. The experiment in a line: Luminescence Cell-Based Dose Response HTS to Identify Activators of 5'UTR Stem-Loop Driven Prion Protein mRNA Translation in H4 Neuroglioblastoma Cells. [Related pubchem assays: 1829 (Project Summary), 1814 (Primary HTS)]. The conditions noted are these: Homo sapiens. The class given is functional.
The nature of experiment [11]: Luminescence Cell-Based Dose Confirmation HTS to Identify Activators of 5'UTR Stem-Loop Driven Alpha-Synuclein mRNA Translation in H4 Neuroglioblastoma Cells. [Related pubchem assays: 1829 (Project Summary), 1814 (Primary HTS)]. The format is functional.
Experiment [12] in a line: Trypanosoma cruzi growth suppression in host cells – NIH3T3 host cells, beta-gal luminescence, confirmation (AID 2044).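 Note: intracellular parasites grown in NIH/3T3 mouse fibroblasts as host cells; luminescent beta-galactosidase reporter signal from transgenic T. cruzi replicating inside host cells; inhibitors lower the luminescence signal.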 The class given is functional, cell-based.
The nature of experiment [13]: NIH3T3 cell viability loss – ATP luminescence, mouse fibroblasts, counter-screen, dose response (AID 2010).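 Note: cells exposed to compound for about 90 hours before reading.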 The class given is functional, cell-based.
The nature of experiment [14]: viability of uninfected HEp-2 cells – cell-based, HTS, cytotoxicity control for RSV inhibitor project, dose response (AID 2410). The class given is functional. The conditions noted are these: human respiratory syncytial virus.
The target of experiment [15] is FAD-linked sulfhydryl oxidase ALR (Homo sapiens, UniProt P55789). Nature of the experiment: ALR-catalysed DTT oxidation blockers – biochemical, H2O2 detection, luminescence, cherry-pick, dose response (AID 493248).
Experiment [16] deals with T3, Rac GTPase-activating protein 1 (Homo sapiens, UniProt Q9H0H5).
T3 sequence (Q9H0H5 whole entry): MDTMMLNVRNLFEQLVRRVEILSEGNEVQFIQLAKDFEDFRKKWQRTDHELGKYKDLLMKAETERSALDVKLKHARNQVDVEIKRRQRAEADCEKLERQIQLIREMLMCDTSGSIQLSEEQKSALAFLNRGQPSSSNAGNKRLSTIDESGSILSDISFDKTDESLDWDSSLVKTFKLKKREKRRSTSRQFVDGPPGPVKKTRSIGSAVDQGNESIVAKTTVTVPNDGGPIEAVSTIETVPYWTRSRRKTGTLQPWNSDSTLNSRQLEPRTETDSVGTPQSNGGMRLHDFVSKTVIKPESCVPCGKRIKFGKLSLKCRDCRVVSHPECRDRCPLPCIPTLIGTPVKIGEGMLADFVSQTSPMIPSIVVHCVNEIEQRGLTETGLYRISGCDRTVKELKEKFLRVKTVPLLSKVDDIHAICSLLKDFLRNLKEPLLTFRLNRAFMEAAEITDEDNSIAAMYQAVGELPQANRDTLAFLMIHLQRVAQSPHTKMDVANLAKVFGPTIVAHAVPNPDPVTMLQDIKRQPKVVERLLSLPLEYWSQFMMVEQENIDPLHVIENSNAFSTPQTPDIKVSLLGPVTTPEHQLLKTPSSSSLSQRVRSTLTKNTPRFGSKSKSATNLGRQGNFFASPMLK
Nature of the experiment: blockers of MgcRacGAP-driven Rac1 GTP hydrolysis – biochemical, ADP Hunter fluorescence, primary and confirmatory, confirmation (AID 624330). The format is functional.

Activity calls are given as the source filed them.

Sequence of Luciferin 4-monooxygenase (P08659 whole entry): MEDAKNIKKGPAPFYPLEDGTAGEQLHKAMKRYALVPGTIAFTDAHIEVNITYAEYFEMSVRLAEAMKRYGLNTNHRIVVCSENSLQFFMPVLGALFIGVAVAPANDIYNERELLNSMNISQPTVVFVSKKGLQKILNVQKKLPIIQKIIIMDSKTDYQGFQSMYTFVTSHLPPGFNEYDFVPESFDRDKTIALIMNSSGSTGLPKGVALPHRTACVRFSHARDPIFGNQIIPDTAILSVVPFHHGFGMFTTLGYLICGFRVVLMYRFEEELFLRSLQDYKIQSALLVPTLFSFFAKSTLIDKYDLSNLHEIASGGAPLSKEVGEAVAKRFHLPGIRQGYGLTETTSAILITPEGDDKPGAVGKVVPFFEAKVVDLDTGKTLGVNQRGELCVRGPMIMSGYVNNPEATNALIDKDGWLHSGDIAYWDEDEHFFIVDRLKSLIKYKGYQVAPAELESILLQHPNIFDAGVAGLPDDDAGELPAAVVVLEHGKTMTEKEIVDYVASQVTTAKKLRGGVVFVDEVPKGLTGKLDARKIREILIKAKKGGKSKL
Sequence of FAD-linked sulfhydryl oxidase ALR (P55789 whole entry): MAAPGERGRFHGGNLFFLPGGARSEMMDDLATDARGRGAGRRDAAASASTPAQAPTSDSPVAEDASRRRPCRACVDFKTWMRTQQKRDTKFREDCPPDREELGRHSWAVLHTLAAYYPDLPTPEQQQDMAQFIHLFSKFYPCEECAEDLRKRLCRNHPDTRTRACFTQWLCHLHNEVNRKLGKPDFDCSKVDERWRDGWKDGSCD

Regarding `CN(C)c1ccc(/C=C/c2ccc3ccccc3n2)cc1`, the IC50 in experiment [1] was > 100 µM (inactive). In addition, the AC50 in experiment [2] is 3.17 µM (active); in experiment [3], 1.33 µM (active); in [4] it was 15.9 µM (active).

On to `CC1CN(S(=O)(=O)c2cccc(C(=O)OCC(=O)Nc3ccc4c(c3)OCO4)c2)CC(C)O1` (stereo unspecified), for which the IC50 in [1] was > 100 µM (inactive). The same measure, in the same setting: the value for `O=C(Nc1nccs1)c1ccc(-c2ccc(F)cc2)o1` was > 100 µM (inactive); that for `CCOC(=O)c1c(C)cc(C)n2c1nc1ccccc12` was > 100 µM (inactive). Regarding `CCOc1ccc(NC(=O)[C@@H](NC(=O)c2ccccc2)[C@@H](C)CC)cc1`, in [5], the EC50 is > 53 µM (inactive). Besides, the IC50 in experiment [6] was > 47.1 µM (inactive). On the same counts, the results for `Cc1cccc(C)c1OCC(O)Cn1nnc2ccccc21` (stereo unspecified) are > 53 µM (inactive) and > 47.1 µM (inactive). As for `Cc1cc(C)c2oc(-c3ccc(C)c(NC(=S)NC(=O)/C=C/c4ccco4)c3)nc2c1`, the CC50 in experiment [7] is > 40 µM (active).

For `CCN(CC)CCOC(=O)c1ccc(NC(=O)CCCN2C(=O)/C(=C\c3cccs3)SC2=S)cc1`, the IC50 in experiment [1] is > 100 µM (inactive).

Take `Cc1onc(-c2ccccc2Cl)c1C(=O)Nc1ccc(Br)cc1`: the EC50 in experiment [8] and in [9] was > 112 µM (not active) each time.

Turning to `COC(=O)c1sc(NC(=O)c2ccc(C)o2)nc1C`, the EC50 was > 112 µM (not active) in experiment [8] and 5.6 µM (active) in experiment [9]. `CCOC(=O)c1c(-c2cccs2)csc1NC(=O)CN1CC(C)OC(C)C1` (stereo unspecified): the IC50 in experiment [1] is > 100 µM (inactive). In the case of `O=C(C[C@@H]1C/C=C\C[C@H](NC(=O)OCC2c3ccccc3-c3ccccc32)C(=O)OC[C@H]2CCCN2C1=O)N[C@@H](CO)Cc1ccccc1`, in [7], the CC50 was > 40 µM (active). Consider `CC(C)C(NS(=O)(=O)c1ccc2c(c1)oc(=O)n2C)C(=O)N1CCN(C2CCCCC2)CC1` (stereo unspecified), for which the EC50 in [5] was > 53 µM (inactive). The IC50 in experiment [6] is > 47.1 µM (inactive).

For the compound `N#C/C(=C\c1ccco1)c1nc2ccccc2s1`, the IC50 in [1] is > 100 µM (inactive). Consider `O=c1oc(-c2ccc([N+](=O)[O-])cc2)nc2ccc(O)cc12`, for which the EC50 in [8] was 1.72 µM (active); in experiment [9], 0.995 µM (active). On to `O=c1c2ccccc2nnn1Cc1ccc(Br)cc1`, for which the IC50 in experiment [1] was 87.8 µM (inactive).

With `Cc1ccc(S(=O)(=O)c2cc3ccccc3oc2=O)cc1`, the EC50 in experiment [10] and in experiment [11] was > 120 µM (not active) each time. Take `Cc1cccc(NS(=O)(=O)c2cccc(C(=O)N3CCN(c4ccccn4)CC3)c2)c1`: in experiment [5], the EC50 is > 53 µM (inactive). Moreover, the IC50 in [6] is > 47.1 µM (inactive). Take `CCOc1ccc(C2c3[nH]c4ccccc4c3C[C@H]3C(=O)N(C4CCN(Cc5ccccc5)CC4)CC(=O)N23)cc1OC` (stereo partly specified): the CC50 in experiment [7] was 38.9 µM (active). For `CC(C)c1nc2scc(-c3ccc(Cl)cc3)c2c(=O)n1N`, in [7], the CC50 is > 40 µM (active). As to `O=C(CCCn1cc([N+](=O)[O-])cn1)NC1CCCCCC1`, the EC50 in [8] and in experiment [9] was > 112 µM (not active) throughout. Consider `CCC1OC(=O)C(C)C(OC2C[C@@](C)(OC)C(O)C(C)O2)C(C)C(O[C@@H]2OC(C)CC(N(C)C)C2O)[C@](C)(O)CC(C)C(=NOCOCCOC)C(C)C(O)[C@]1(C)O` (stereo partly specified), for which, in experiment [5], the EC50 is > 53 µM (inactive). The IC50 in experiment [6] was > 47.1 µM (inactive). For `COC(=O)C1=C(C)N(Cc2ccccc2)C(=O)N[C@H]1CCc1ccccc1`, in that order: > 53 µM (inactive) and > 47.1 µM (inactive). Take `COc1ccccc1C1CCN(Cc2ccc3ccccc3c2)CC1`: the CC50 in experiment [7] is > 40 µM (active). For the same compound, the EC50 was 1.2 µM (active) in experiment [12] and > 60 µM (not active) in [13]. For the compound `COc1ccccc1-n1c(SCC(=O)Nc2cc(C)on2)nc2c(c1=O)SCC2`, the AC50 in experiment [4] is > 70 µM (inactive). Turning to `CC(C)Cc1nc2oc3c(N4CCN(CCO)CC4)ncnc3c2c2c1CCCC2`, the CC50 in experiment [7] is 33.8 µM (active). Turning to `CCN(CC(=O)Nc1sc2c(c1C#N)CCCC2)CC(=O)NC1CCS(=O)(=O)C1` (stereo unspecified), the EC50 in experiment [8] and in experiment [9] was > 112 µM (not active) throughout. In the case of `COn1c(-c2ccc(Cl)cc2)nc2ccc(Cl)cc21`, in experiment [14], the CC50 is 35.3 µM (active). The IC50 in [1] is 10.8 µM (active). For the compound `O=C(O)CCCN1C(=O)c2ccccc2Sc2ncccc21`, the IC50 in [1] was > 100 µM (inactive).

Turning to `CC(=O)Nc1ccc(S(=O)(=O)N(C)CC(=O)NNC(=O)c2cccs2)cc1`, the IC50 in experiment [1] was > 100 µM (inactive).

In the case of `CC(C)c1ccc(Oc2cccc3c2S(=O)(=O)N(C2CCCC2)CC(COCc2ccccc2)O3)cc1` (stereo unspecified), the half-maximal activity concentration (AC50) in [3] was 15.5 µM (active); in experiment [4], > 70 µM (inactive). `COc1ccc(NC(=O)c2cc3ccccc3o/c2=N\NS(=O)(=O)c2ccc(C)cc2)cc1`: the EC50 in experiment [10] is 0.575 µM (active). As for `NC(=O)c1ccccc1N/C=C/C(=O)c1ccc(Cl)cc1Cl`, the figures for the EC50 in experiment [8] and in experiment [9] were 8.86 µM (active) and 1.1 µM (active), respectively. With `O=c1/c(=C/c2ccc(O)cc2)sc2n1CCCN=2`, the concentration at half-maximal activity (AC50) in [15] is 1.16 µM (active). Further, the IC50 in experiment [16] was 20.1 µM (active). With `CCNc1nc(NCC)nc(N/N=C/c2ccc([N+](=O)[O-])o2)n1`, the CC50 in [7] was 39 µM (active).

The values above are taken from ChEMBL document CHEMBL1201862, “PubChem BioAssay data set” (2004).
